Activity calls are given as the source filed them.
Key:
[1] = tested on: HeLa; assay: HeLa cell cytotoxicity, dose response, cytotoxicity control, 24 h, cherry-picked samples (AID 504726); assay type: functional, cell-based; details: Homo sapiens;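 further: potency for cytotoxicity as loss of luminescence signal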
[2] = molecular target: T1, ORF 73 (Human herpesvirus 8, UniProt O40947); assay: inhibitors of C-LANA binding to LBS DNA, dose response, biochemical, fluorescence polarization, cherry-picked samples (AID 504725); parameters: species or system Human gammaherpesvirus 8;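 further: fluorescence polarization of a labeled DNA duplex reporting LANA DNA binding; potency is for inhibitors that block LANA binding to the DNA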
T1 sequence (O40947 whole entry): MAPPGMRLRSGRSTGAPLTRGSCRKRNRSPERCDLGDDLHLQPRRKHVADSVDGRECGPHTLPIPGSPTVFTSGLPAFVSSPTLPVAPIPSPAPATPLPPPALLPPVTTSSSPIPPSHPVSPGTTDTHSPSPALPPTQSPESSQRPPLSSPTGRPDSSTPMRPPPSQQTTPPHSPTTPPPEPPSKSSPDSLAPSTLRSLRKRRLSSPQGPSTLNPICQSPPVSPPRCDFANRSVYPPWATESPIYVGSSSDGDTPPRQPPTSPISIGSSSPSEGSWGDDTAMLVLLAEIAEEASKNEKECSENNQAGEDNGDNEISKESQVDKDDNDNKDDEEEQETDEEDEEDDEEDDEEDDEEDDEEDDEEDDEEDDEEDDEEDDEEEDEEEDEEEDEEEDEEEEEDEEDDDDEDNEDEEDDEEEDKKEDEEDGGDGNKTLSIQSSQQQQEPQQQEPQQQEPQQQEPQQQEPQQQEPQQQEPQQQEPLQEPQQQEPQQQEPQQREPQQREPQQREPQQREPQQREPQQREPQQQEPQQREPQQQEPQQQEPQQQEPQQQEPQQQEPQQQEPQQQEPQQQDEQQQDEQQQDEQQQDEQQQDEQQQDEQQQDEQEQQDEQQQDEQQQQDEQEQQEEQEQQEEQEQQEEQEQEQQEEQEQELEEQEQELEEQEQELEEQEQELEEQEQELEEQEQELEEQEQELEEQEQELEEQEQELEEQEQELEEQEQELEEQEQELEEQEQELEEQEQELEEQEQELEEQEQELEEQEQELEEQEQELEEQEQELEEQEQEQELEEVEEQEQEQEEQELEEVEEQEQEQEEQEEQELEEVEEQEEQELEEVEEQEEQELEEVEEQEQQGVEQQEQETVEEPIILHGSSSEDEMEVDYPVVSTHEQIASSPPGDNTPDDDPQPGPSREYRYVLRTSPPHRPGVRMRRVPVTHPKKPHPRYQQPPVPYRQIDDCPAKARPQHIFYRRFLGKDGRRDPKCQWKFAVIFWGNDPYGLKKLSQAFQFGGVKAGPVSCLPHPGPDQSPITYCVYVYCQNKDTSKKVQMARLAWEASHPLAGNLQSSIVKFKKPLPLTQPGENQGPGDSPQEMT

[3] = molecular target: Nonstructural protein 1 (Influenza A virus, UniProt Q194T2); assay type: functional, Influenza A virus (A/California/07/2009(H1N1))
[4] = molecular target: Genome polyprotein (dengue virus type 2, UniProt P29990); assay: Dengue-2 NS5 methyltransferase inhibitors, primary screen, biochemical, confirmation dose response (AID 588689); assay type: functional
[5] = molecular target: T2, Carboxy-terminal domain RNA polymerase II polypeptide A small phosphatase 1 (Homo sapiens, UniProt Q9GZU7); assay: inhibitors of CTDSP1, concentration-response testing, biochemical assay, absorbance-based, actives from ultra-high-throughput screening (AID 540297); assay type: functional
T2 sequence (Q9GZU7 whole entry): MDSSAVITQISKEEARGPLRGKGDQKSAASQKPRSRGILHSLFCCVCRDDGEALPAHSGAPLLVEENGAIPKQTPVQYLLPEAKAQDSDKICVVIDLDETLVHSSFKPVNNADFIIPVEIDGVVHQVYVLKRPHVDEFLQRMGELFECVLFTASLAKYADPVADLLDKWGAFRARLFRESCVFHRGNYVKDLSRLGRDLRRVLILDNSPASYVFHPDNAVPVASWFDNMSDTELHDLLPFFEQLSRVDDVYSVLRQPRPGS

[6] = molecular target: Caspase-6 (Homo sapiens, UniProt P55212); assay: human caspase-6 inhibitors, dose response, biochemical, VEID-R110 fluorescence, cherry-pick (AID 720632)
[7] = molecular target: Trypsin (Sus scrofa, UniProt P00761); assay: porcine trypsin inhibitors, dose response, selectivity assay for Rce1 protease inhibitor project, biochemical, quenched peptide fluorescence, cherry-pick (AID 488789)
[8] = molecular target: T3, CAAX prenyl protease 2 (Saccharomyces cerevisiae S288c, UniProt Q03530); assay type: biochemical
T3 sequence (Q03530 whole entry): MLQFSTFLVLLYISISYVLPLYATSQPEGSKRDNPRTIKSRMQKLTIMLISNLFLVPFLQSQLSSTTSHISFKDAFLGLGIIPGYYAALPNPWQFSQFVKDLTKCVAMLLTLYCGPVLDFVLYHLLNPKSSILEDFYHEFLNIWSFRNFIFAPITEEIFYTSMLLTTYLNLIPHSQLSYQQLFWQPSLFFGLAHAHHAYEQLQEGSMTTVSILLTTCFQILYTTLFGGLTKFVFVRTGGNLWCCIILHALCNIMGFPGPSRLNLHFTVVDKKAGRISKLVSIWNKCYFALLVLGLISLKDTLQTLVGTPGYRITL

[9] = tested on: INS1; assay: beta cell apoptosis inhibitors, cytokine rescue, dose response, luminescence, retest (AID 449756); assay type: functional, cell-based; details: Rattus norvegicus;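 further: cell death triggered by IL-1 beta plus TNF-alpha plus IFN-gamma mixture; protective hits raise ATP signal compared with cytokine alone wells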
[10] = Luminescence Cell-Based Dose Response HTS to Identify Inhibitors of 5'UTR Stem-Loop Driven Prion Protein mRNA Translation in H4 Neuroglioblastoma Cells. [Related pubchem assays: 1827 (Project Summary), 1813 (Primary HTS)]; assay type: functional
[11] = inhibitors of SNCA 5'UTR-driven reporter translation, confirmation, H4 neuroglioma cells, luminescence (AID 1988); assay type: functional, cell-based
[12] = molecular target: Glucose-6-phosphate 1-dehydrogenase (Homo sapiens, UniProt P11413); assay: human G6PD enzyme inhibitors, dose response, selectivity assay for P. falciparum G6PD inhibitor project, biochemical, fluorescence (AID 504792); assay type: functional
[13] = cytotoxicity in HEK-293T cells, dose response, cytotoxicity control for BCR NF-kB inhibitor project, luminescence, B-cell screen hits (AID 489021); assay type: functional, cell-based;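 further: HEK-293T cells carrying an NF-kB luciferase reporter; cells exposed to compound for about 14 hours before viability readout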
[14] = inhibitors of HIV Env-driven cell fusion, dose response, cherry-pick (AID 652057); assay type: functional, cell-based
[15] = ZM109 Env clade C HIV-1 fusion inhibitors, dose response, HeLa effector, CEM target cells, luciferase, cherry-pick (AID 652058); assay type: functional, cell-based
[16] = off-target signal loss in HeLa-CEM21 co-culture – HeLa F-luc CTL cells, cherry-picked, counter-screen for HIV-1 Env fusion inhibitor project, dose response (AID 652040); assay type: functional, cell-based;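 further: potency for signal decrease marking cytotoxic or nonspecific inhibition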
[17] = inhibitors of clade B AD8 Env fusion, dose response, cell-based, cherry-pick (AID 652062); assay type: functional;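 further: luciferase signal from cell-cell fusion driven by HIV-1 clade B AD8 Env; potency is for inhibitors of fusion seen as a drop in luminescence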
[18] = molecular target: T4, Corticotropin-releasing factor receptor 2/Corticotropin-releasing factor-binding protein (Homo sapiens, UniProt P24387+Q13324); assay: Dose Response confirmation of uHTS hits for small molecule antagonists of the CRF-binding protein and CRF-R2 receptor complex.; assay type: functional; details: read-out: IC50_Mean
T4 sequence (Q13324 whole entry): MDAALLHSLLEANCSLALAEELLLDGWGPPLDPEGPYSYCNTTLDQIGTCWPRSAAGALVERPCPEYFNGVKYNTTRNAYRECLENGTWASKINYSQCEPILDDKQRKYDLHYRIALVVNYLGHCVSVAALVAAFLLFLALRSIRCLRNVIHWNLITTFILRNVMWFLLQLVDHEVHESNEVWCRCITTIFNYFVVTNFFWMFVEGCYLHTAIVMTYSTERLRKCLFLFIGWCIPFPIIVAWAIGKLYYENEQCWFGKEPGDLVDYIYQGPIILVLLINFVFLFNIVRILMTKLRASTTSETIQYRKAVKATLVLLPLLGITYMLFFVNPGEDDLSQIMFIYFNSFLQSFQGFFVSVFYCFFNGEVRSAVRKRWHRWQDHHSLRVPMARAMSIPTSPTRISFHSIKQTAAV
T4 sequence (P24387 whole entry): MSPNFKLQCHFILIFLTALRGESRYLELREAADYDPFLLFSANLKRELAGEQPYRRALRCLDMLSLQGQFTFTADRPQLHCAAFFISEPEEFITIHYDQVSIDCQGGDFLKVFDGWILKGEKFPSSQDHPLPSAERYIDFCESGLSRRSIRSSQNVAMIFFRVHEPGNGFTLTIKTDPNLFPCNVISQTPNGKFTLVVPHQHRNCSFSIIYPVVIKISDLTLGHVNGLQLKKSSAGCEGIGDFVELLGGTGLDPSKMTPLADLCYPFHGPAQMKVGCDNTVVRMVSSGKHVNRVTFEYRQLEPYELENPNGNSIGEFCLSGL

[19] = molecular target: T4, Corticotropin-releasing factor receptor 2/Corticotropin-releasing factor-binding protein; assay: activators of CRF receptor 2 with binding protein – uHTS hits, confirmation (AID 602473); assay type: functional; details: read-out: EC50_Mean
[20] = inhibitors of Vif binding to APOBEC3G peptide, primary screen, biochemical, TR-FRET, GST-Vif 1-94, biotin-A3G peptide, dose response retest (AID 1117319); assay type: functional;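 further: TR-FRET signal of purified GST-Vif binding a biotinylated A3G peptide; inhibitors lower the FRET signal by blocking Vif and A3G binding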
[21] = molecular target: T5, Tyrosine-protein phosphatase non-receptor type 7 (Homo sapiens, UniProt P35236); assay: redox-dependent HePTP inhibition, mechanism study, biochemical, fluorescence (AID 2068); assay type: functional
T5 sequence (P35236 whole entry): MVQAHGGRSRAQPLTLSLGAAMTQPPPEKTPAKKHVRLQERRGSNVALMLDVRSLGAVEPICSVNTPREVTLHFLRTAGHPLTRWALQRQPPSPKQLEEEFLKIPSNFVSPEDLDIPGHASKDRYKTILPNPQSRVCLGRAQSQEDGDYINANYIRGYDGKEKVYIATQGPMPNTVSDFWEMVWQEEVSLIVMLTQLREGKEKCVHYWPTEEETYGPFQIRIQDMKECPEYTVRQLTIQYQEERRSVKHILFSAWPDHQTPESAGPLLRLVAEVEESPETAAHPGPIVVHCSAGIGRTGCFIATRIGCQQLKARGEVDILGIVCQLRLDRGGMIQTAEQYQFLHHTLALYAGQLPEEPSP

[22] = molecular target: Melanin-concentrating hormone receptor 1 (Homo sapiens, UniProt Q99705); assay: Late-stage fluorescence-based counterscreen for antagonists of the G-protein coupled receptor 7 (GPR7): cell-based dose response assay to identify antagonists of the melanin-concentrating hormone receptor 1 (MCHR1). [Related pubchem assays (depositor defined):AID1861, AID1880, AID1952, AID2148, AID2251, AID2257, AID485339]; assay type: functional;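 further: stimulated with 30 nM MCH peptide agonist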
[23] = molecular target: Intestinal-type alkaline phosphatase (Homo sapiens, UniProt P09923); assay: Dose Response confirmation of uHTS hits from a small molecule inhibitors of human intestinal alkaline phosphatase via a luminescent assay. [Related pubchem assays (depositor defined):AID2544, AID2574]; assay type: functional
[24] = HeLa cell cytotoxicity, dose response, cytotoxicity control for MgcRacGAP inhibitor project (AID 624300); assay type: functional
[25] = molecular target: C-C chemokine receptor type 6 (Homo sapiens, UniProt P51684); assay: CCR6 receptor antagonists, dose response, cell-based, luminescent beta-arrestin readout (AID 504728); assay type: functional
[26] = molecular target: Beta-galactosidase (Escherichia coli, UniProt Q8VNN2); assay: beta-galactosidase enzyme inhibitors and activators, dose response, artefact control for CCR6 antagonist project, biochemical, E. coli enzyme, set 3 (AID 504712); assay type: functional
[27] = tested on: Vero; assay: cells; assay type: functional; details: Chlorocebus sabaeus
[28] = molecular target: 1-acylglycerol-3-phosphate O-acyltransferase ABHD5/Perilipin-5 (Homo sapiens, UniProt Q00G26+Q8WTS1); assay: Luminescence-based biochemical high throughput dose response assay for inhibitors of the interaction of the lipase co-activator protein, abhydrolase domain containing 5 (ABHD5) with perilipin-5 (MLDP; PLIN5) (2K validation set). [Related pubchem assays (depositor defined):AID493035, AID493241]
[29] = molecular target: Perilipin-1/ABHD5 (Homo sapiens, UniProt O60240+Q8WTS1); assay: Luminescence-based biochemical high throughput dose response assay for inhibitors of the interaction of the lipase co-activator protein, abhydrolase domain containing 5 (ABHD5) with perilipin-1 (PLIN1) (2K validation set). [Related pubchem assays (depositor defined):AID493027, AID493057]
[30] = molecular target: Eukaryotic translation initiation factor 4E (Mus musculus, UniProt P63073); assay: eIF4E–eIF4G protein interaction inhibitors, dose response, biochemical, TR-FRET (AID 855); assay type: functional;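 further: potency for disrupting eIF4E binding to eIF4GI seen as loss of FRET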

Sequence of 1-acylglycerol-3-phosphate O-acyltransferase ABHD5/Perilipin-5 (Q00G26 whole entry, the tested form may be a part): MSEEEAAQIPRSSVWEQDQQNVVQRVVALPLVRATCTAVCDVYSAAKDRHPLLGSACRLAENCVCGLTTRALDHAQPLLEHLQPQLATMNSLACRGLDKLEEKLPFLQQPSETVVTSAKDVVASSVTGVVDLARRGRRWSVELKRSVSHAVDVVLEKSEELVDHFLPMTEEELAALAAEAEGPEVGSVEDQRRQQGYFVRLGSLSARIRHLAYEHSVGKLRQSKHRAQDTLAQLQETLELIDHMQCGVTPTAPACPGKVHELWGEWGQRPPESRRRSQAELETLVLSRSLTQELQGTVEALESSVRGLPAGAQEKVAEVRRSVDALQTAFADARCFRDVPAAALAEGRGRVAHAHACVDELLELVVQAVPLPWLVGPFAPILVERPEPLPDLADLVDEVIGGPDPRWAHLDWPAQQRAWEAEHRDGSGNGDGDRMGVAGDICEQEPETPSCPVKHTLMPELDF
Sequence of 1-acylglycerol-3-phosphate O-acyltransferase ABHD5/Perilipin-5 (Q8WTS1 whole entry, the tested form may be a part): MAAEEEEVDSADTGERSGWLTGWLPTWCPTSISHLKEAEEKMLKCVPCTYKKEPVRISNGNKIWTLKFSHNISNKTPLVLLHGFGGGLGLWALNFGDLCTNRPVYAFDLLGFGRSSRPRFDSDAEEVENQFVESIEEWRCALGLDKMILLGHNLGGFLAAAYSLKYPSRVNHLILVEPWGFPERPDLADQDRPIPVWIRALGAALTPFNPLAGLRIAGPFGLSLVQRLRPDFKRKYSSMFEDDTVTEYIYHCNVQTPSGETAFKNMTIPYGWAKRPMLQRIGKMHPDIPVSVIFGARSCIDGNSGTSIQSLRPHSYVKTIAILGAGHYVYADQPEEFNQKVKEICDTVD
Sequence of Perilipin-1/ABHD5 (Q8WTS1 whole entry, the tested form may be a part): as above
Sequence of Perilipin-1/ABHD5 (O60240 whole entry, the tested form may be a part): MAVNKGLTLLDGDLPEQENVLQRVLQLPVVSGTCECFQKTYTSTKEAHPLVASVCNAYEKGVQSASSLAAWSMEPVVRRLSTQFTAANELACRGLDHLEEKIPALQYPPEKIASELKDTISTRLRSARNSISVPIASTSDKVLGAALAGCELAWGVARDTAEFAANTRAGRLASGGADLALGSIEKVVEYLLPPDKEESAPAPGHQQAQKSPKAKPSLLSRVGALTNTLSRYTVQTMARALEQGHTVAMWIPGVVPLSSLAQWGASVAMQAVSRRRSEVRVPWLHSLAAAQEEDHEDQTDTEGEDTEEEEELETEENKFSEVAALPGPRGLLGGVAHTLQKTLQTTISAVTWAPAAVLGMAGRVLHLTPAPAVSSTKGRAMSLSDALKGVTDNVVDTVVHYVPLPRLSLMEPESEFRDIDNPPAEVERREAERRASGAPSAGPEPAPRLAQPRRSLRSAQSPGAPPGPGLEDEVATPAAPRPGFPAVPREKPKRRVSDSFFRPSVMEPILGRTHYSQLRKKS
Sequence of Glucose-6-phosphate 1-dehydrogenase (P11413 whole entry): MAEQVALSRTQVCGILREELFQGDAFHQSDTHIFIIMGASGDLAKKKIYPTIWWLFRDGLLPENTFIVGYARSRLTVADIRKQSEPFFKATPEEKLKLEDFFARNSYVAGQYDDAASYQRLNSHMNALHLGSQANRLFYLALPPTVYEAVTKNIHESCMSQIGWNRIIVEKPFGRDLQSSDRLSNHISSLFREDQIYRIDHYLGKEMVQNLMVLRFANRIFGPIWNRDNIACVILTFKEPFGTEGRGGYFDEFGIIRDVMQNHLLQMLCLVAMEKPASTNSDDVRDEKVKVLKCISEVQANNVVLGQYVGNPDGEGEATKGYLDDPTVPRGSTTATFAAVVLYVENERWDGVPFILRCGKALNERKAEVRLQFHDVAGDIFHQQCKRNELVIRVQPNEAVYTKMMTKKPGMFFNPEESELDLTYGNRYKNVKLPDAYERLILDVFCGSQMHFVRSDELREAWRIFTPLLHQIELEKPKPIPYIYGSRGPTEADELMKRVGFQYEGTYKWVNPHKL
Sequence of Nonstructural protein 1 (Q194T2 whole entry): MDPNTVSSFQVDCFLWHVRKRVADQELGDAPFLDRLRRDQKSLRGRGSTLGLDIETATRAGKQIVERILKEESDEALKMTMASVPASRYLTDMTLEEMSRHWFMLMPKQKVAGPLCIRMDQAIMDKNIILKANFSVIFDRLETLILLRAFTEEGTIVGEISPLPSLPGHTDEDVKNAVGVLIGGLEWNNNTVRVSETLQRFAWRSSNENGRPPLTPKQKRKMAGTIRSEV
Sequence of Genome polyprotein (P29990 2492-3391 limits assumed): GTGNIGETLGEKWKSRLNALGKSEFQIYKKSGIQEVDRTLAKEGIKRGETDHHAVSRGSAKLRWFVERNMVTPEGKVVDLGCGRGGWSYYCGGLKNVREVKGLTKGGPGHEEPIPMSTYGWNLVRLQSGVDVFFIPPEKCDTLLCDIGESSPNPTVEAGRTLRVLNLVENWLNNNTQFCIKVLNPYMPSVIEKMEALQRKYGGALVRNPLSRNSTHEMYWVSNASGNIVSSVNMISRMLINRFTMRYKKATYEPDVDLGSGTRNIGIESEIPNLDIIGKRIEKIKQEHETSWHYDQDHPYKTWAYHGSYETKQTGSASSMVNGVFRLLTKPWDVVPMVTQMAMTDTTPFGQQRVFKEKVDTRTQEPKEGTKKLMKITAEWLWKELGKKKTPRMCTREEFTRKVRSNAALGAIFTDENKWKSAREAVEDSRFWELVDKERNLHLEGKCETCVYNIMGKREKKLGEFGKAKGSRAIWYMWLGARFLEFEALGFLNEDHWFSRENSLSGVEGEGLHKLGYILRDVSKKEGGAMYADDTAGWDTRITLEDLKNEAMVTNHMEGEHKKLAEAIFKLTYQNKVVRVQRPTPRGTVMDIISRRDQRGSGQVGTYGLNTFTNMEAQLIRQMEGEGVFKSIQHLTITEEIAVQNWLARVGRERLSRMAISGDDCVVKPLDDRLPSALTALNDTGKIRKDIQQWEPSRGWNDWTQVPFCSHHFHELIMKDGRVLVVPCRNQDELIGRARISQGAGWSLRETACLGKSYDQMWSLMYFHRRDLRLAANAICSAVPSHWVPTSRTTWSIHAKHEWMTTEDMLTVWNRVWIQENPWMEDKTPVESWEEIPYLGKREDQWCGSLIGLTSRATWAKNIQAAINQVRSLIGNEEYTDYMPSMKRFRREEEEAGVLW
Sequence of Melanin-concentrating hormone receptor 1 (Q99705 whole entry): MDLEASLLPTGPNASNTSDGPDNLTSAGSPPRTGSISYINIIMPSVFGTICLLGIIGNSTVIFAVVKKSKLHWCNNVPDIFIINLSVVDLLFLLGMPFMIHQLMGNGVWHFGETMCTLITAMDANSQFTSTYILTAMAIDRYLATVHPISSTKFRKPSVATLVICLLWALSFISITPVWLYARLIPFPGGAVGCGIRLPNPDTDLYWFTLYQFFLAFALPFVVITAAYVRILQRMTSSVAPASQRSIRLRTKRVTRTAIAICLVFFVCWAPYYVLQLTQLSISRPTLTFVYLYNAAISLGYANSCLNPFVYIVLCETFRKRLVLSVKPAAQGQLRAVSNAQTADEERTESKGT
Sequence of Caspase-6 (P55212 24-179 limits assumed): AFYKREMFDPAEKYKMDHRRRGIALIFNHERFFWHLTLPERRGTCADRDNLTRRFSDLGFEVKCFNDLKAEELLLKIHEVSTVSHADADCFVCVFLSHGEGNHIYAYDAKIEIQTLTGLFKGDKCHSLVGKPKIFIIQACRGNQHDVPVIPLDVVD
Sequence of Caspase-6 (P55212 194-293 limits assumed): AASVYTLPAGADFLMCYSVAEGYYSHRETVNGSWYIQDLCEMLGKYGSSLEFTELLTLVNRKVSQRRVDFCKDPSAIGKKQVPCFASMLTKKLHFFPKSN
Sequence of Beta-galactosidase (Q8VNN2 whole entry): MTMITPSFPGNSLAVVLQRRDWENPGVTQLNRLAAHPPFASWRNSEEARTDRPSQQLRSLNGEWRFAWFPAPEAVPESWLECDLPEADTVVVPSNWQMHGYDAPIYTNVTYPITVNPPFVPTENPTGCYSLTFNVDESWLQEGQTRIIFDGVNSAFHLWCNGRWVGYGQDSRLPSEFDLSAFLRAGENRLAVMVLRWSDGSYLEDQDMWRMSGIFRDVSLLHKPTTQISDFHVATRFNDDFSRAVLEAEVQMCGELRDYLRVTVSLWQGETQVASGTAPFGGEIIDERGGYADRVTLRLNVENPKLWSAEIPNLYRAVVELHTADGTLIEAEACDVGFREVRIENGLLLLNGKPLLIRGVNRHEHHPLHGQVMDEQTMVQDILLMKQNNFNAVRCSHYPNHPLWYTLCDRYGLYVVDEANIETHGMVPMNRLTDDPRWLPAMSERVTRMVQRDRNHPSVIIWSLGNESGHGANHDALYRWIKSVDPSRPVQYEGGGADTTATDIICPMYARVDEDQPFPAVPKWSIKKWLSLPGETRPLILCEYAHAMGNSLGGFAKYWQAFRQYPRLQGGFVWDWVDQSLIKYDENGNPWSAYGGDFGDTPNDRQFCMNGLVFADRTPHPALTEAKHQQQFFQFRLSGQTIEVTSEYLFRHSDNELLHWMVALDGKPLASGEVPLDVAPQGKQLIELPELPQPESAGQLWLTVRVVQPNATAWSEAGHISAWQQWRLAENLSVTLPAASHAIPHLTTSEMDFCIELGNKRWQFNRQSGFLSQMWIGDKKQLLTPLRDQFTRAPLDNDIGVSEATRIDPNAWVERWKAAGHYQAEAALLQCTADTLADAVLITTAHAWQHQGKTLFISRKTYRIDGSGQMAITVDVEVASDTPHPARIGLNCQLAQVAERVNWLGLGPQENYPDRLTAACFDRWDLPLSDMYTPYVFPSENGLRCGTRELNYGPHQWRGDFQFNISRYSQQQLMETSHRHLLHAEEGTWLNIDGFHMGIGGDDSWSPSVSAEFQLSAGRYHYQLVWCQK
Sequence of Trypsin (P00761 whole entry): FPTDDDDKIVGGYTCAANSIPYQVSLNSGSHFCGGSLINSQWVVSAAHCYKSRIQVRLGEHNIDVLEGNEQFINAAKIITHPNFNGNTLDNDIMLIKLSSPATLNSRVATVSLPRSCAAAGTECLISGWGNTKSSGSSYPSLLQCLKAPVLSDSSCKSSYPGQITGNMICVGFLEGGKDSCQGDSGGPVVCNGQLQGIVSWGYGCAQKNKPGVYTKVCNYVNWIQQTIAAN

O=C(O)Cc1ccc(N=Nc2c(O)c(C(=O)O)cc3ccccc23)cc1
AC50 [1]: 303 µM (active) | AC50 [2]: 33.6 µM (active) | IC50 [3]: 46 µM (active) | IC50 [4]: 68.1 µM (active) | IC50 [5]: 3.6 µM (active) | AC50 [6]: 7.16 µM (active)

COc1ccc(-c2c[n+]3c4n2CCCCC4=C(c2ccc(Br)cc2)C3)cc1
AC50 [7]: 3.58 µM (active) | AC50 [8]: 1.87 µM (active) | AC50 [9]: 2.88 µM (active)

OCCN1CCN(C(=S)c2ccc(-c3ccccc3)cc2)CC1
EC50 [10]: 12.1 µM (active) | EC50 [11]: 9.34 µM (active) | IC50 [12]: > 80 µM (inactive) | IC50 [13]: > 80 µM (inactive) | AC50 [14]: 4.04 µM (active) | AC50 [15]: 3.74 µM (active) | AC50 [16]: 5.39 µM (active) | AC50 [17]: 1.64 µM (active)

COc1ccc(OC)c(NC(=O)c2[nH]c(C)c(C(C)=O)c2C)c1
IC50 [13]: > 80 µM (inactive) | IC50 [18]: > 47.1 µM (inactive) | EC50 [19]: > 53 µM (inactive) | IC50 [20]: > 100 µM (active)

O=C(NCc1ccccc1)Nc1ccc2nc(-c3ccco3)c(-c3ccco3)nc2c1
IC50 [21]: 1.54 µM (active)

CCOc1ccc(Oc2c(Cl)cnn(-c3ccc(C)cc3)c2=O)cc1
IC50 [22]: 11 µM (inactive)

CC(=O)Nc1cccc(-c2csc(Nc3ccccn3)n2)c1
IC50 [23]: > 100 µM (inactive) | CC50 [24]: 94.2 µM (active)

COC(=O)c1ccccc1/N=C1\C=C(NS(=O)(=O)c2cccs2)c2ccccc2C1=O
IC50 [12]: > 80 µM (inactive) | IC50 [25]: > 66.6 µM (inactive) | IC50 [26]: > 66.6 µM (inactive) | IC50 [3]: 4.03 µM (active) | CC50 [27]: 13.6 µM (active)

COc1cc(/C=C(\C#N)C(=O)N2CCc3ccccc32)ccc1O
IC50 [28]: > 26.5 µM (inactive) | IC50 [29]: 21.4 µM (inactive) | IC50 [30]: 50 µM (inactive)

O=C(/C=C/c1ccccc1)c1ccccc1 [CHALCONE]
IC50 [28]: 4.25 µM (active) | IC50 [29]: 4.19 µM (active)

Reference: ChEMBL document CHEMBL1201862, “PubChem BioAssay data set” (2004)
